The source of these data is ChEMBL document CHEMBL1165957, “Alkaloids from the bark of Guatteria hispida and their evaluation as antioxidant and antimicrobial agents” (2010).

Common to all, as to assay type: functional
Test [1] is described as follows: Antioxidant activity assessed as trolox equivalents of peroxyl radical scavenging activity by ORAC assay. Also on record: unit not given here.
Another test concerns Kocuria rhizophila. As to the kind of experiment: Antimicrobial activity against Kocuria rhizophila ATCC 9341 by broth dilution method. (Broth dilution looks for growth in wells or tubes with falling amounts of substance.)
For test [2], the system named is Staphylococcus aureus. As to the kind of experiment: Antimicrobial activity against Staphylococcus aureus ATCC 14458 by broth dilution method.
For test [3], the system named is Staphylococcus aureus. As to the kind of experiment: Antimicrobial activity against Staphylococcus aureus 7+ penicillinase positive + by broth dilution method.
For test [4], the system named is Staphylococcus aureus. Nature of the test: Antimicrobial activity against Staphylococcus aureus 8- penicillinase negative by broth dilution method.
Test [5] relates to Staphylococcus epidermidis. Nature of the test: Antimicrobial activity against Staphylococcus epidermidis 6ep by broth dilution method.
The next test relates to Escherichia coli. As to the kind of experiment: Antimicrobial activity against Escherichia coli ATCC 10538 by broth dilution method.
The subject of another test is Pseudomonas aeruginosa. Nature of the test: Antimicrobial activity against Pseudomonas aeruginosa ATCC 27853 by broth dilution method.
The test system of a further test is Candida albicans. Nature of the test: Antimicrobial activity against Candida albicans ATCC 10231 by broth dilution method.
For a further test, the system named is Candida tropicalis. Nature of the test: Antimicrobial activity against Candida tropicalis CT by broth dilution method.
The test system of a further test is Nakaseomyces glabratus. As to the kind of experiment: Antimicrobial activity against Candida glabrata ATCC 30070 by broth dilution method.
Another test concerns Candida parapsilosis. Nature of the test: Antimicrobial activity against Candida parapsilosis ATCC 22019 by broth dilution method.
Test [6] has as its system Candida dubliniensis. As to the kind of experiment: Antimicrobial activity against Candida dubliniensis ATCC 777 by broth dilution method.
In test [7] the test system is Candida dubliniensis. As to the kind of experiment: Antimicrobial activity against Candida dubliniensis ATCC 778157 by broth dilution method.

≈ marks a conversion by molar mass, not a printed value. Calls of active or inactive are those of the source.

Take `COc1cc2c(cc1O)C[C@H]1c3cc(O)c(OC)cc3CCN1C2`: the Activity in test [1] came to 1.4.
The same measure, in the same setting: next, `COc1cc2c(cc1O)C[C@H]1c3cc(OC)c(O)cc3CCN1C2`: 1.67.
In the case of `COc1cc2c3c(c1OC)-c1ccccc1CC3NCC2` (configuration not stated), the Activity in [1] worked out at 0.27.
On the same count and under the same terms, under `COc1ccc2c(c1)C(=O)c1nccc3c(O)c(OC)c(OC)c-2c13` stands 1.62.
Take `O=C(O)/C=C/c1ccc(O)c(O)c1`: the Activity in [1] came to 2.95.
Still for that read-out and setting: next, `O=c1c(O)c(-c2ccc(O)c(O)c2)oc2cc(O)cc(O)c12`: 5.62; `O=c1c(O[C@@H]2O[C@H](CO)[C@@H](O)[C@H](O)[C@H]2O)c(-c2ccc(O)c(O)c2)oc2cc(O)cc(O)c12`: 5.25.
`O=C(N[C@H](CO)[C@H](O)c1ccc([N+](=O)[O-])cc1)C(Cl)Cl` [CHLORAMPHENICOL]: the MIC (in general, the smallest concentration in the dilution series that meets the test's criterion for growth inhibition) came to 50 µg/mL (≈ 155 µM) against Kocuria rhizophila; 25 µg/mL (≈ 77.4 µM) in the test with Staphylococcus aureus [2]; 25 µg/mL in the test on Staphylococcus aureus [3]; 25 µg/mL (≈ 77.4 µM) in the test on Staphylococcus aureus [4]; 50 µg/mL (≈ 155 µM) in [5]; 50 µg/mL (≈ 155 µM) with Escherichia coli. Also, in the test with Pseudomonas aeruginosa, the MIC was determined as 850 µg/mL (≈ 2630 µM).
`COc1c(OC)c2c3c(nccc3c1OC)C(=O)c1ccccc1-2` [HOMOMOSCHATOLINE]: the MIC entry in the test with Kocuria rhizophila, with Staphylococcus aureus [2], with Staphylococcus aureus [3], with Staphylococcus aureus [4], in the test with Escherichia coli and with Pseudomonas aeruginosa was “inactive” each time. Besides, the MIC entry in the test on Candida albicans, with Candida tropicalis, with Nakaseomyces glabratus and in the test with Candida parapsilosis was “inactive” each time. Further, the MIC came out at 25 µg/mL (≈ 77.8 µM) in [5], 12.5 µg/mL (≈ 38.9 µM) in the test on Candida dubliniensis [6] and 25 µg/mL (≈ 77.8 µM) against Candida dubliniensis [7]. In addition, the Activity in [1] turned out to be 0.5.
Regarding `CC(=O)N1CCN(c2ccc(OCC3COC(Cn4ccnc4)(c4ccc(Cl)cc4Cl)O3)cc2)CC1` (configuration not stated) [KETOCONAZOLE], the MIC with Candida albicans, against Candida tropicalis, in the test with Nakaseomyces glabratus, with Candida parapsilosis (Lodderomyces parapsilosis), with Candida dubliniensis [6] and with Candida dubliniensis [7] was 12.5 µg/mL (≈ 23.5 µM) each time.
`O=C1c2ccccc2-c2c3c(cc4ccnc1c24)OCO3` [LIRIODENINE]: the MIC entry with Kocuria rhizophila, in the test with Staphylococcus aureus [2], in the test with Staphylococcus aureus [3], in the test on Staphylococcus aureus [4], with Escherichia coli and in the test with Pseudomonas aeruginosa was “inactive” throughout. Moreover, the MIC entry with Candida albicans, in the test with Candida tropicalis, in the test with Nakaseomyces glabratus and in the test with Candida parapsilosis was “inactive” each time. In addition, the values for the MIC (in test [5]; in the test on Candida dubliniensis [6]; in the test on Candida dubliniensis [7]) were 50 µg/mL (≈ 182 µM), 50 µg/mL (≈ 182 µM) and 100 µg/mL (≈ 363 µM), respectively. For the same compound, the Activity in test [1] worked out at 0.3.
Regarding `COc1cc2ccnc3c2c(c1OC)-c1ccccc1C3=O` [LYSICAMINE], the MIC entry with Kocuria rhizophila, in the test on Staphylococcus aureus [2], with Staphylococcus aureus [3], with Staphylococcus aureus [4], with Escherichia coli and in the test with Pseudomonas aeruginosa was “inactive” in each case. Also, the MIC entry with Candida albicans, in the test on Candida tropicalis, with Nakaseomyces glabratus and with Candida parapsilosis was “inactive” each time. Moreover, the MIC worked out at 50 µg/mL (≈ 172 µM) in test [5], 100 µg/mL (≈ 343 µM) in the test on Candida dubliniensis [6] and 100 µg/mL (≈ 343 µM) against Candida dubliniensis [7]. Further, in test [1], the Activity came to 0.86.
